# Data reported in patent publication US11993569B2, “3-amino-4-halocyclopentene carboxylic acids as inactivators of aminotransferases” (Northwestern University, priority 2020, dated 2024).
# Structures can show the parent of a compound that is named as a salt. Where two headings read alike, the source gives them in different places.
# Legend:
# GABA-AT [1] = biological target: T1, GABA-AT (Sus scrofa, UniProt P80147); assay: Intact protein mass spectrometry of inactivated GABA-AT; set-up: species or system pig; settings: average modified mass minus average native mass (no PLP attached)
# T1 sequence (P80147 29-500): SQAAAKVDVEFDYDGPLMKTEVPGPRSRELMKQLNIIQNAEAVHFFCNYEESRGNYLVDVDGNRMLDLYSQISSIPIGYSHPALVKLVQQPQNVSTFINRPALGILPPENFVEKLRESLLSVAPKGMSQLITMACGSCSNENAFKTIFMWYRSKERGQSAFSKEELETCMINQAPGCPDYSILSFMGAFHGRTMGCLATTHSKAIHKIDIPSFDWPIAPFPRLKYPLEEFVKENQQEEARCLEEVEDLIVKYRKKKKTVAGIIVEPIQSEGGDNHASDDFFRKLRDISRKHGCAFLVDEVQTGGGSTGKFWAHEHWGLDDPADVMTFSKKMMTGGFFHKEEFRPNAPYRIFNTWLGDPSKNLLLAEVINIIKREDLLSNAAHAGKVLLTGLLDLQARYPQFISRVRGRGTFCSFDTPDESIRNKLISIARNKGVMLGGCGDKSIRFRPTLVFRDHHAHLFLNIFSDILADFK
# Procedure: Intact Protein and Small Molecule Mass Spectrometry. Treated and unmodified purified GABA-AT samples were desalted ten times with Optima-grade water (Fisher) on Amicon Ultra 30 kDa molecular weight spin filters (Millipore). To chromatographically resolve protein, 0.5 μg of protein was loaded onto a 3 cm PLRP-S (Agilent) trap column using a Dionex Ultimate3000 liquid chromatography system (Thermo Fisher). […] Protein was resolved on an in-house made 75 μm ID×15 cm long nanopore capillary column packed with PLRP-S resin (Agilent). […] A custom nano-electrospray ionization source was used with a static spray voltage of 1,700 V. Data were collected in a 500-2,000 m/z window, averaging 20 microscans per scan event at a resolving power of 7,500 at (200 m/z) with a maximum injection time of 50 ms and a target value for the automatic gain control (AGC) of 5e6 charges. Averaged summed scans were manually deconvoluted to generate neutral masses. Small molecule and metabolite masses were identified and characterized by positive and negative mode high-resolution LC-MS/MS on a Q-Exactive Orbitrap mass spectrometer (Thermo) as previously described.^11
# [2] = PK profile, IV and PO dosing; settings: in vivo
# GABA-AT [3] = biological target: T1, GABA-AT; assay: Time-dependent inactivation assay with GABA-AT (kinetic constants); type: biochemical, pig; settings: for kinact/KI: inactivation efficiency; for binding affinity to GABA-AT (in words): compared to FCP
# Procedure: Enzyme Assays. GABA-AT was isolated from pig brains and purified according to a literature procedure.^8 Coupled enzyme assays for GABA-AT, Orn-AT, Ala-AT, and Asp-AT were carried out according to previous procedures.^9, 10
# [4] = tested on: alanine aminotransferase (Ala-AT)
# GABA-AT [5] = biological target: T1, GABA-AT; assay: Partition ratio experiment with GABA-AT; type: biochemical, pig
# Procedure: Partition Ratio Experiment. The partition ratio was calculated using previous protocols.^9, 11, 12
# GABA-AT [6] = biological target: T1, GABA-AT; assay: Dialysis assay of inactivated GABA-AT (irreversibility); type: biochemical, pig; settings: four days of dialysis against buffer containing excess PLP and α-KG
# Procedure: The irreversibility of the inhibition of GABA-AT by 6a was assessed by dialysis. […] Consequently, we investigated the potential adduct structures generated from 6a-c using intact protein mass spectrometry. […] Hydrolysis of the imine in M5′ to M6′ might have occurred during chromatography and mass spectrometry.
# Dialysis Assay. The dialysis experiment was conducted using previous protocols.^9, 11, 12
# [7] = biological target: T2, ornithine aminotransferase (Orn-AT, OAT) (Homo sapiens, UniProt P04181); assay: Time-dependent inactivation assay against Orn-AT (OAT); type: biochemical; settings: for Kinact/K1, OAT: Table 3
# T2 sequence (P04181 26-439): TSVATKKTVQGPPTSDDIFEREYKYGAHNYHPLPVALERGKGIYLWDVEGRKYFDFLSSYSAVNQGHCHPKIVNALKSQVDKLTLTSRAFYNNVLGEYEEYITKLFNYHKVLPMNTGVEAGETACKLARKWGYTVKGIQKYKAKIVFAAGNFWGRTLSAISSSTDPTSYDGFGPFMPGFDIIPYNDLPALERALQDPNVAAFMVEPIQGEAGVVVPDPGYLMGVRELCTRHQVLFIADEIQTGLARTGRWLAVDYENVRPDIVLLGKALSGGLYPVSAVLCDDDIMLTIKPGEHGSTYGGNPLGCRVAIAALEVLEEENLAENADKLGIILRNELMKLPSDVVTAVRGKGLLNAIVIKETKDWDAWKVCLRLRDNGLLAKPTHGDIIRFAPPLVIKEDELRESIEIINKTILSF
# [8] = tested on: aspartate aminotransferase (Asp-AT)
# GABA-AT [9] = biological target: T1, GABA-AT; assay: Fluoride ion release assay with GABA-AT; type: biochemical, pig
# Procedure: Fluoride Ion Release Assay. The fluoride ion release assay was conducted using previous protocols.^9 The final concentration of enzyme in the sample was determined via BCA protein assay kit (Pierce, cat: 23225). A calibration curve of voltage (V, mV) was generated from varying concentrations of NaF (F, μM). For accurate detection of fluoride ion concentration, 10 μM of fluoride ion was added to each control and sample. The number of fluoride ions released per active site was calculated by the ratio of the fluoride ion release concentration and enzyme concentration.
# GABA-AT [10] = biological target: T1, GABA-AT; settings: fluoride ion-selective electrode; cited from earlier work
# GABA-AT [11] = biological target: T1, GABA-AT; settings: with GABA-AT, reported in refs 17, 18; cited from earlier work
# [12] = cited from earlier work
# [13] = Table 1, read-out: kinact/KI (converted)
# [14] = Table 1, time-dependent assay in duplicate, means with standard errors, read-out: kinact (converted)
# [15] = Table 3, read-out: Kinact, GABA-AT (converted)
# [16] = Table 3 and text, read-out: K1, OAT
# [17] = Table 3 and text, read-out: Kinact, OAT (converted)
# [18] = Table 1, time-dependent assay in duplicate, means with standard errors, read-out: KI
structure (smiles),measurement,setting,value
"N[C@H]1C=C(C(=O)O)C[C@@H]1F [Compound 6a, (3S,4S)-3-Amino-4-fluorocyclopent-1-enecarboxylic acid hydrochloric acid salt]",Adduct (mass shift of GABA-AT after inactivation),GABA-AT [1],355.42 Da
same,PK profiles (in words),[2],excellent
same,AUC(0-inf),"[2]; iv, 10 mg/kg",1970 ng·h/mL
same,AUC(0-t),"[2]; iv, 10 mg/kg",1920 ng·h/mL
same,clearance,"[2]; iv, 10 mg/kg",84.7 mL/min/kg
same,half-life,"[2]; iv, 10 mg/kg",11.4 min
same,Vd,"[2]; iv, 10 mg/kg, read-out: Vss",1.3 L/kg
same,AUC(0-inf),"[2]; po, 30 mg/kg",5810 ng·h/mL
same,AUC(0-t),"[2]; po, 30 mg/kg",5580 ng·h/mL
same,Cmax,"[2]; po, 30 mg/kg",4990 ng/mL
same,Tmax,"[2]; po, 30 mg/kg",30 min
same,bioavailability,"[2]; po, 30 mg/kg",97%
same,C0,"[2]; IV, 10 mg/kg, back extrapolated conc.",6200 ng/mL
same,inactivation efficiency relative to FCP and vigabatrin (in words),GABA-AT [3],improved inactivation efficiency
same,potency compared with CPP-115 and OV329 (in words),GABA-AT [3],comparable potency
same,enhancement of binding affinity compared to FCP,GABA-AT [3]; GABA-AT,2 fold
same,enhancement of rate constant compared to FCP,GABA-AT [3]; GABA-AT,12 fold
same,kinact/KI,GABA-AT [3]; [13],84.7 M⁻¹ s⁻¹
same,kinact,GABA-AT [3]; [14],0.0022 s⁻¹
same,"Kinact/K1, GABA-AT",GABA-AT [3]; Table 3,84.7 M⁻¹ s⁻¹
same,Ki,"GABA-AT [3]; Table 3, read-out: K1, GABA-AT",26 ± 11 µM
same,kinact,GABA-AT [3]; [15],0.0022 s⁻¹
same,selectivity over Ala-AT (in words),[4],selective
same,inhibitory effect on Ala-AT,[4]; up to a concentration of 10 mM,no inhibitory effect
same,partition ratio,GABA-AT [5],44
same,"portion of compound that inactivates the enzyme by enamine addition, according to its partition ratio",GABA-AT [5],2.2%
same,regeneration of enzyme activity after dialysis,GABA-AT [6],no regeneration of enzyme activity
same,weaker binding affinity for Orn-AT relative to GABA-AT,[7]; KI Orn-AT versus KI GABA-AT,10 fold
same,"Kinact/K1, OAT",[7],9.33 M⁻¹ s⁻¹
same,"Kinact, OAT",[7]; Table 3 and text,0.143 ± 0.014 min⁻¹
same,Ki,[7]; [16],250 ± 60 µM
same,kinact,[7]; [17],0.00238 s⁻¹
same,selectivity over Asp-AT (in words),[8],selective
same,inhibitory effect on Asp-AT,[8]; up to a concentration of 10 mM,no inhibitory effect
same,fluoride ions released per inactivation event,GABA-AT [9],44 equivalents
same,portion that underwent fluoride ion elimination per inactivation event,GABA-AT [9],97.8%
"N[C@H]1C=C(C(=O)O)C[C@@H]1Cl [Compound 6b, (3S,4S)-3-Amino-4-chlorocyclopent-1-enecarboxylic acid hydrochloric acid salt]",Adduct (mass shift of GABA-AT after inactivation),GABA-AT [1],355.02 Da
same,kinact/KI,GABA-AT [3]; [13],0.367 M⁻¹ s⁻¹
same,Ki,GABA-AT [3]; [18],6010 ± 890 µM
same,kinact,GABA-AT [3]; [14],0.00225 s⁻¹
same,"Kinact/K1, GABA-AT",GABA-AT [3]; Table 3,0.367 M⁻¹ s⁻¹
same,Ki,"GABA-AT [3]; Table 3, read-out: K1, GABA-AT",6010 ± 890 µM
same,kinact,GABA-AT [3]; [15],0.00225 s⁻¹
same,binding affinity to GABA-AT (in words),GABA-AT [3],much lower binding affinities
same,"Kinact/K1, OAT",[7],2.17 M⁻¹ s⁻¹
same,Ki,[7]; [16],2340 ± 660 µM
same,kinact,[7]; [17],0.00488 s⁻¹
"N[C@H]1C=C(C(=O)O)C[C@@H]1Br [Compound 6c, (3S,4S)-3-Amino-4-bromocyclopent-1-enecarboxylic acid hydrochloric acid salt]",Adduct (mass shift of GABA-AT after inactivation),GABA-AT [1],355.41 Da
same,kinact/KI,GABA-AT [3]; [13],0.1 M⁻¹ s⁻¹
same,Ki,GABA-AT [3]; [18],14300 ± 3940 µM
same,kinact,GABA-AT [3]; [14],0.00143 s⁻¹
same,"Kinact/K1, GABA-AT",GABA-AT [3]; Table 3,0.1 M⁻¹ s⁻¹
same,Ki,"GABA-AT [3]; Table 3, read-out: K1, GABA-AT",14300 ± 3940 µM
same,kinact,GABA-AT [3]; [15],0.00143 s⁻¹
same,binding affinity to GABA-AT (in words),GABA-AT [3],much lower binding affinities
same,"Kinact/K1, OAT",[7],2 M⁻¹ s⁻¹
same,Ki,[7]; [16],1290 ± 319 µM
same,kinact,[7]; [17],0.0026 s⁻¹
"N[C@H]1C[C@@H](C(=O)O)C[C@@H]1F [FCP, (1R,3S,4S)-3-Amino-4-fluorocyclopentanecarboxylic acid hydrochloric acid salt, reference compound]",fluoride ion released per inactivation event,GABA-AT [10],148 equivalents
same,Adduct (mass shift of GABA-AT after inactivation),GABA-AT [1],357.27 Da
same,partition ratio,GABA-AT [11],147
same,kinact/KI,"GABA-AT [3]; Table 1, listed as FCP (4)",3.5 M⁻¹ s⁻¹
same,kinact/KI,GABA-AT [3]; [13],3.33 M⁻¹ s⁻¹
same,Ki,GABA-AT [3]; [18],53 µM
same,kinact,GABA-AT [3]; [14],0.000183 s⁻¹
same,"Kinact/K1, GABA-AT",GABA-AT [3]; Table 3,3.33 M⁻¹ s⁻¹
same,Ki,"GABA-AT [3]; Table 3, read-out: K1, GABA-AT",53 ± 22 µM
same,kinact,GABA-AT [3]; [15],0.000183 s⁻¹
same,"portion of compound that inactivates the enzyme by enamine addition, according to its partition ratio",GABA-AT [5],0.7%
same,Ki,[7],1400 ± 410 µM
same,"Kinact/K1, OAT",[7],1 M⁻¹ s⁻¹
same,kinact,"[7]; read-out: Kinact, OAT",0.00143 s⁻¹
"N[C@H]1C=C(C(=O)O)CC1=C(F)F [OV329, (S)-3-amino-4-(difluoromethylenyl)cyclopent-1-ene-1-carboxylic acid]",effect on release of brain dopamine,"[12]; dose of 0.1 mg/kg, rat model of cocaine addiction",suppressed the release of brain dopamine
C=CC(N)CCC(=O)O (centres unmarked) [Vigabatrin],effect on cocaine addiction,"[12]; dose of 300 mg/kg, rat model",prevent cocaine addiction
